BigSolDB 2.1

## C=C(C)[C@@H]1CC[C@]2(C(=O)O)CC[C@]3(C)[C@H](CC[C@@H]4[C@@]5(C)CC[C@H](O)C(C)(C)[C@@H]5CC[C@]43C)[C@@H]12
In THF, 278.2 K
  solubility (mole fraction): 0.00975
In THF, 288.2 K
  solubility (mole fraction): 0.0136
In THF, 298.2 K
  solubility (mole fraction): 0.0206
In THF, 308.2 K
  solubility (mole fraction): 0.0276
In THF, 318.2 K
  solubility (mole fraction): 0.0388
In acetone, 278.2 K
  solubility (mole fraction): 0.000398
In acetone, 288.2 K
  solubility (mole fraction): 0.000502
In acetone, 298.2 K
  solubility (mole fraction): 0.000598
In acetone, 308.2 K
  solubility (mole fraction): 0.000829
In acetone, 318.2 K
  solubility (mole fraction): 0.00103
In ethanol, 278.2 K
  solubility (mole fraction): 0.000651
In ethanol, 288.2 K
  solubility (mole fraction): 0.000819
In ethanol, 298.2 K
  solubility (mole fraction): 0.00107
In ethanol, 308.2 K
  solubility (mole fraction): 0.00135
In ethanol, 318.2 K
  solubility (mole fraction): 0.00171
In ethyl acetate, 278.2 K
  solubility (mole fraction): 0.00045
In ethyl acetate, 288.2 K
  solubility (mole fraction): 0.000515
In ethyl acetate, 298.2 K
  solubility (mole fraction): 0.000733
In ethyl acetate, 308.2 K
  solubility (mole fraction): 0.000956
In ethyl acetate, 318.2 K
  solubility (mole fraction): 0.00124
In ethyl formate, 278.2 K
  solubility (mole fraction): 0.0002
In ethyl formate, 288.2 K
  solubility (mole fraction): 0.000272
In ethyl formate, 298.2 K
  solubility (mole fraction): 0.000428
In ethyl formate, 308.2 K
  solubility (mole fraction): 0.000548
In ethyl formate, 318.2 K
  solubility (mole fraction): 0.000786
In isopropanol, 278.2 K
  solubility (mole fraction): 0.000765
In isopropanol, 288.2 K
  solubility (mole fraction): 0.00092
In isopropanol, 298.2 K
  solubility (mole fraction): 0.0012
In isopropanol, 308.2 K
  solubility (mole fraction): 0.00149
In isopropanol, 318.2 K
  solubility (mole fraction): 0.00196
In methanol, 278.2 K
  solubility (mole fraction): 0.00019
In methanol, 288.2 K
  solubility (mole fraction): 0.000248
In methanol, 298.2 K
  solubility (mole fraction): 0.000339
In methanol, 308.2 K
  solubility (mole fraction): 0.000461
In methanol, 318.2 K
  solubility (mole fraction): 0.000734
In n-butanol, 278.2 K
  solubility (mole fraction): 0.00118
In n-butanol, 288.2 K
  solubility (mole fraction): 0.00149
In n-butanol, 298.2 K
  solubility (mole fraction): 0.00192
In n-butanol, 308.2 K
  solubility (mole fraction): 0.00234
In n-butanol, 318.2 K
  solubility (mole fraction): 0.003
In n-butyl acetate, 278.2 K
  solubility (mole fraction): 0.000824
In n-butyl acetate, 288.2 K
  solubility (mole fraction): 0.001
In n-butyl acetate, 298.2 K
  solubility (mole fraction): 0.0012
In n-butyl acetate, 308.2 K
  solubility (mole fraction): 0.00159
In n-butyl acetate, 318.2 K
  solubility (mole fraction): 0.00193
In n-hexanol, 278.2 K
  solubility (mole fraction): 0.00226
In n-hexanol, 288.2 K
  solubility (mole fraction): 0.00283
In n-hexanol, 298.2 K
  solubility (mole fraction): 0.00324
In n-hexanol, 308.2 K
  solubility (mole fraction): 0.00378
In n-hexanol, 318.2 K
  solubility (mole fraction): 0.00454
In n-pentanol, 278.2 K
  solubility (mole fraction): 0.00199
In n-pentanol, 288.2 K
  solubility (mole fraction): 0.00228
In n-pentanol, 298.2 K
  solubility (mole fraction): 0.00266
In n-pentanol, 308.2 K
  solubility (mole fraction): 0.00309
In n-pentanol, 318.2 K
  solubility (mole fraction): 0.00363
In n-propanol, 278.2 K
  solubility (mole fraction): 0.00103
In n-propanol, 288.2 K
  solubility (mole fraction): 0.00137
In n-propanol, 298.2 K
  solubility (mole fraction): 0.00178
In n-propanol, 308.2 K
  solubility (mole fraction): 0.00221
In n-propanol, 318.2 K
  solubility (mole fraction): 0.0028
In sec-butanol, 278.2 K
  solubility (mole fraction): 0.000821
In sec-butanol, 288.2 K
  solubility (mole fraction): 0.00113
In sec-butanol, 298.2 K
  solubility (mole fraction): 0.00149
In sec-butanol, 308.2 K
  solubility (mole fraction): 0.00189
In sec-butanol, 318.2 K
  solubility (mole fraction): 0.00245
